In patent publication US5871779A, “Treatment of arthropathies with vanadate compounds or analogues thereof” (Mount Sinai Hospital Corporation, priority 1996, dated 1999):
Where “and” joins values, the source holds several entries; their conditions need not be identical. Identical values can stand only once.

Tests used:
[1] = body weights of mice, BMOV solution and beads (Example 19); type: in vivo
Experimental: On day 6 the mice were divided into 6 groups as follows: group 1, empty control; group 3, tumor control; group 3, injected subcutaneously with 0.25 mg/100μl BMOV, twice a day; group 4, injected IP with 20 mg palla beads containing 5 mg of BMOV; group 5, injected IP with 10 mg of BMOV beads on day 6 and day 9 respectively and; group 6, injected intramuscularly with 10 mg of BMOV beads on day 6 and day 9. On day 16, the mice were sacrificed and tumors were dissected.
The body weights of mice in control and treated groups, and the tumor weights from control and treated mice, are shown in Tables 5 and 6 respectively.

collagenase = assay: synovial collagenase expression in arthritic rats (Northern blot); type: in vivo, rat; settings: BMOV-treated (with NAC) vs control, Day 18
Experimental: (§1) Collagenase, stromelysin, and IL-1 expression were quantitated in each group of rats. Selected rats in each group were sacrificed on Day 18 post arthritis onset to measure collagenase, stromelysin, and IL-1 expression via the Northern Blot. Synovial biopsies were pooled and homogenized in the presence of RNASTAT-60 (Tel Test). Total RNA was isolated following the manufacturer's instructions, washed in 70% ethanol, and dissolved in 30 μl RNA loading buffer (Sigma) containing ethidium bromide. The RNA was electrophoresed on a 1% agarose formaldehyde gel and transferred to 0.45 μm nylon filter membrane (Magna NT, MSL). The blot was prehybridised in 50% formamide, 5×SSPE, 5×dendhardts, 1% SDS, 200 μg/ml ssDNA and 50 μg/ml tRNA. The rat collagenase cDNA (bp. 1-550 of locus RATCOL genbank accession M60616), rat stromelysin (ATCC, Rockville, Md.), or rat […] (genbank accession D00403) were labeled by random primed incorporation of ^32 P-dATP (Random Primed Labeling Kit, Boerhinger Manheim). After overnight hybridization at 42° C. overnight, the blot was washed in 1×SSPE at 37° C. and exposed to Kodak X-Ornat AP film for 24 hours at -70° C. with an intensifying screen. The blot was stripped with 50% formamide in 2×SSPE, checked for residual counts and reprobed. The resulting autoradiographs were digitized and analyzed with NIH image software and normalized for RNA loading.

IL-1α = assay: synovial IL-1α expression in arthritic rats (Northern blot); type: in vivo, rat; settings: BMOV-treated (with NAC) vs control, Day 18
Experimental: as §1

MCF7 (WT) = assay: MTT cytotoxicity assay, MCF7 (WT); type: cell-based, human; settings: MCF7 (WT), 72 hours; read-out: IC50 Value
Experimental: (§2) The relative cytotoxicity of various compounds on tumor cell lines was investigated as follows. Cytotoxicity was measured by the MTT microculture tetrazolium colorimetric assay for all cell lines. The relative cytotoxicity of Na3 VO4 and VOSO4 was investigated using the following tumor cell lines: P388(WT) murine leukemia, P388 (ADR) murine leukemia, Lewis murine lung, MCF7 (WT) human breast, […] human lung, K562 human erythroleukemia, A431 human epidermal, LS180 human colon and SK-OV-3 human ovarian. The relative cytotoxicity of doxorubicin, Na3 VO4 and VOSO4 was investigated using the following tumor cell lines: P388(WT) murine leukemia, P388 (ADR) murine leukemia, MCF7(WT) human breast and MCF7 (ADR) human breast. The relative cytotoxicity of BMOV, BEOV and naglivan was investigated using the following tumor cell lines: P388(WT) murine leukemia, P388 (ADR) murine leukemia, Lewis murine lung, H460 human lung, K562 human erythroleukemia, and SK-OV-3 human ovarian.
The cells were plated (number of cells/well was different from cell line to cell depending on the dividing rate) in a 96-well microculture plate 24 hours prior to the delivery of the vanadium compounds. Serial concentrations of solutions of the test compounds (0.05-100 μM) were delivered to the corresponding wells. A blank column (without cells) and a control column (with cells without vanadium) were left. The cells were incubated for 72 hours continuously. An MTT solution was added to each well after this incubation period and the cells were incubated for 4 more hours for the completion of the dyeing process. The medium was removed find DMSO was added to each well. The absorbance of each well was read with a Titertek Multiskan (310C) spectrophotometer at 570 nm. The percentage of the absorbance of each vanadium concentration relative to the control calculated and the value of the 50% growth inhibition concentration (IC50) was obtained from the % control versus concentration plot. Each assay was repeated three times and the reported IC50 values were the mean of these three runs.

PGE2 = PGE2 production by chondrocytes (RIA); type: cell-based, bovine; settings: 100 μM
Experimental: (§3) The effect of orthovanadate and N-acetylcysteine on fos, jun and collagenase expression were examined. Bovine articular chondrocytes were isolated and plated as previously described (Kandel R. A. et al. Biochim. Biophys. Acta. 1053, 130-134, 1990). In order to determine the effect of orthovanadate on IL 1 and PMA (phorbol ester) induced responses, chondrocytes were incubated with orthovanadate (100 μM) for 2 hours before stimulation with IL 1 (10 ng/ml) or PMA ([…]). Collagenase production was determined by incubating chondrocytes for 24 hours with IL 1 or PMA and the cell conditioned medium was assayed for collagenase activity using an ELISA procedure as described previously (Kandel et al. supra). PLA2 activity was measured by incorporating ^3 H-arachidonic acid (^3 H-AA) into the cells and then incubating the cells with medium containing 1 mg/ml BSA, either alone or in the presence of IL 1 or PMA, for 10 min. as previously described (Conquer, J. A. […], Biochim. Biophys. Acta. 1134, 1-6). The amount of ^3 H-AA liberated into the supernatant was determined. To measure PGE2 production, chondrocytes were incubated for 6 hours in Ham's F12 medium, either alone or with IL 1 or PMA. The supernatant was analyzed by RIA using an antibody specific for PGE2 (Dr. S. A. Jones, Mount Sinai Hospital, Toronto, Canada). […]

PLA2 = assay: release of 3H-arachidonic acid from chondrocytes (PLA2 activity); type: cell-based, bovine; settings: 100 μM
Experimental: as §3

LS180 = assay: MTT cytotoxicity assay, LS180; type: cell-based, human; settings: LS180, 72 hours
Experimental: as §2
The cells were plated (number of cells/well was different from cell line to cell depending on the dividing rate) in a 96-well microculture plate 24 hours prior to the delivery of the vanadium compounds. Serial concentrations of solutions of the test compounds (0.05-100 μM) were delivered to the corresponding wells. […] The absorbance of each well was read with a Titertek Multiskan (310C) spectrophotometer at 570 nm. […]

[2] = toxicity of orthovanadate by route of administration; type: in vivo, mice
From the text: However, subcutaneous injections of up to 500 μgms orthovanadate is tolerated by the animals. Slow administration of the orthovanadate would decrease toxicity and the animals may tolerate higher doses.

Row | SMILES | Body weight, Average ([1]; BMOV solution 0.25 mg × 1) | Body weight ([1]; BMOV solution 0.25 mg × 1, individual mice) | percent inhibition of collagenase gene expression (collagenase) [%] | percent inhibition of IL-1α gene expression (IL-1α) [%] | IC50 (MCF7 (WT)) [µM] | inhibition of IL 1 or PMA induced PGE2 production (PGE2) | inhibition of IL 1 or PMA induced release of 3H-AA (PLA2) | IC50 (LS180) [µM] | toxicity, oral administration ([2]; 0.5 mg/ml oral) | toxicity, intraperitoneal administration ([2]; high doses i.p.) | tolerated subcutaneous injection ([2]; subcutaneous)
1 | Cc1occc(=O)c1[O-].Cc1occc(=O)c1[O-].[O]=[V+2] [BMOV, bis(methylmaltolato) oxovanadium (IV)] | 17.87 | 18.8 and 17.8 and 18.4 and 17.3 | 78 | 85 |  |  |  |  |  |  | 
2 | [Na+].[Na+].[Na+].[O]=[V]([O-])([O-])[O-] [orthovanadate, sodium orthovanadate] |  |  |  |  | 8.5 | did not inhibit | did not inhibit | 16.4 | gastric toxicity | toxic to the animals | up to 500 μgms
